Series [1] has as its system rats subjected to myocardial ischemia/reperfusion insult. As to the kind of experiment: Cardiac function and hemodynamics in rats subjected to myocardial ischemia/reperfusion. The series is classed as in vivo, rat. The conditions noted are these: 30 mg/kg orally. Here is the method:
Method: Male SD rats weighing 300-350 g were fasted for 12 hrs and anesthetized by i.p. treatment with 20% Urethane (0.5 ml/100 g, 1 g/kg). Polyethylene tubes (PE-50) were inserted into the left femoral artery, left femoral vein, right femoral vein and the left ventricle. The left femoral artery was cannulated for blood collection, and the left femoral vein was cannulated for liquid compensation, the right femoral artery was cannulated for blood pressure detection, the left ventricle was cannulated for ventricular pressure detection, left femoral artery and ventricle were cannulated and the catheter was linked with pressure transducer by triplet. Signals were acquired by oscillograph and multi-channel biodynamic recorder linked with the pressure transducer. Rats in drug-treated group were orally treated with IMM-004 at 30 mg/kg, while rats in vehicle control group was orally treated with an equal volume of vehicle (PEG). Dissect the trachea and artificial respiration was performed via respirator after thoracotomy (2 ml/100 g). A left thoracotomy was performed from the forth to fifth intercostals space by cutting off the forth and fifth rib 2 mm from the left border of sternum, and the pericardium was opened to expose the heart. A 3.0 silk ligature was placed under the left anterior descending coronary artery. The heart was taken back to the chest and allowed to stabilize for 10 min. The ends of the suture were threaded through a polyethylene tube (3×8 mm) to form a snare. Pull the ends of the suture taut and clamp the snare with a hemostat to occlude the coronary artery. Coronary artery occlusion was verified by epicardial cyanosis and subsequent decrease in arterial blood pressure. Reprefusion of the heart was initiated via unclamping the hemostat and loosening the snare for 15 min. Left ventricular systolic pressure (LVSP), left ventricular end-diastolic pressure (LVEDP), and maximum rate of left ventricular pressure (±dp/dtmax), artery systolic pressure (SP), artery diastolic pressure (DP), mean artery pressure (MAP) and heart rate (HR) were continuously recorded every 10 min before and after thoracotomy and during the period of ischemia (15 min) and reperfusion (1 h).

A further series has as its system normal rats. Kind of series: Cardiac function and hemodynamics in normal rats. Type of series: in vivo, rat. The conditions noted are these: 30 mg/kg orally; normal anesthetized rats. Here is the method: Method: Male SD rats, weighing 300-350 g were fasted for 12 hrs and anesthetized by i.p. treatment with 20% Urethane (0.5 ml/100 g, 1 g/kg). Polyethylene tubes (PE-50) were inserted into the left femoral artery, left femoral vein, right femoral vein and the left ventricle. The left femoral artery was cannulated for blood collection, and the left femoral vein was cannulated for liquid compensation, the right femoral artery was cannulated for blood pressure detection, the left ventricle was cannulated for ventricular pressure detection, the left femoral artery and ventricle were cannulated and the catheter was linked with pressure transducer by triplet. Signals were acquired by oscillograph and multi-channel biodynamic recorder linked with the pressure transducer. Rats in drug-treating group were orally administered with IMM-004 at 30 mg/kg, while rats in vehicle control group was orally treated with equal volume of vehicle (PEG). Left ventricular systolic pressure (LVSP), left ventricular end-diastolic pressure (LVEDP), and maximum rate of left ventricular pressure (±dp/dtmax), artery systolic pressure (SP), artery diastolic pressure (DP), mean artery pressure (MAP) and heart rate (HR) were recorded 40 min after the administration. Signals were continuously recorded in every 10 min.

`O=c1c2cc(Cl)ccc2[se]n1-c1ccccn1` [IMM-004, 5-chloro-2-(2-pyridyl)-1,2-benz-isoselenazol-3(2H)-one]: in series [1], the “+dp/dtmax” value is “about +110 mmHg/s”, the Heart rate result is listed as “not influenced”, the MAP is 80 mmHg and the SBP was found to be 100 mmHg. The LVSP in series [1] (decreased steadily from 120 mmHg) turned out to be 100 mmHg. Moreover, the LVEDP result in series [1] (equal to the baseline) is “about −6 mmHg”. The “−dp/dtmax” value in series [1] (reduced from 100 mmHg/s) came out at 70 mmHg/s. The “LVSP, LVEDP, ±dp/dtmax, SP, DP, MAP and heart rate (HR)” value with normal rats is “not significantly influenced”.

These data come from patent publication US20060135569A1, “Use of benzisoselenazolone compounds against ischemic myocardial damage” (priority 2002, published 2006).
